# Data published in patent publication US6821530B2, “Polymer composite compositions” (Shriners Hospitals for Children, priority 2000, dated 2004).
# Key:
# [1] = test system: confluent tendon fibroblasts; assay: Cytotoxicity test of NDGA and its oxidation products, CYQUANT viable cell number; assay type: cell-based, calf
# Description: (§1) Cell cultures: Digital extensor tendons were excised fresh from new born calves euthanized at a local abattoir and held in Dulbecco's Phosphate Buffered Saline during dissection and preparation for culture. Tendons were minced, weighed, and then digested with 0.1% w/v testicular hyaluronidase in 0.15 M NaCl, 0.1 M NaH2PO4, pH 7.0 (5 ml/g wet tissue weight) at 37° C. for 45 minutes. The hyaluronidase wash was decanted and the tissue was next digested with 5 mg/g tissue of Pronase E and 5 mg/g tissue of collagenase in 4% bovine serum albumen in DMEM/Ham F12 medium at 37° C. overnight. Cells were isolated from the tissue residue and washed with PBS. Cells were dispersed in DMEM/Ham F12 medium, counted, and plated on 24-well culture plates. Cells were cultured in DMEM/Ham F12 containing 10% FBS unless otherwise noted.
# Cytotoxicity tests: The potential toxicity of NDGA, its reaction products, and the NDGA cross-linked fibers was determined using confluent tendon fibroblasts. NDGA was tested by dissolving NDGA in DMSO, then directly diluting in the medium containing 10% FBS to the desired final concentrations. […] Fibroblasts were cultured in the presence of NDGA or its oxidation products for 24 hours, and then the number of viable cells was measured with the CYQUANT® Cell Proliferation Assay Kit (Molecular Probes).
# [2] = NDGA quantitation in culture medium by capillary zone electrophoresis; assay type: physicochemical; set-up: Initial NDGA remaining in medium: dose or concentration left out as unconfirmed
# Description: NDGA Quantitation: The amount of NDGA in the buffers, eluents, and medium was determined by capillary zone electrophoresis on a Dionex CES. A sodium borate buffer (10 mM sodium borate, 50 mM boric acid, pH 8.0) was chosen for electrophoresis because it was known that borate efficiently complexes with catechols and increases absorptivity (Waite et al., Methods. Enzymol. 107:397-413, 1984). Samples were diluted in electrophoresis buffer, loaded by electrophoresis (5000 V for 5 seconds) onto a […] inner diameter×80 cm long hollow glass capillary, and electrophoresed at 20 kV. NDGA was detected by absorbance at 280 nm. The amount of NDGA in the experimental samples was calculated from the peak area following calibration of the NDGA standards dissolved directly in capillary zone electrophoresis (CZE) buffer. Based on capillary zone electrophoretic analysis of NDGA-containing medium, NDGA disappears from the medium with time in culture, even in the absence of cells (FIGS. 13A and 13B). NDGA was dissolved in DMSO to 10 mM and then diluted 100-fold into the medium. For the zero time point, the medium containing NDGA was diluted 3-fold with CZE buffer and electrophoresed immediately. For the 24 hour time point, the medium was incubated at 37° C. in a cell culture incubator before diluting 3-fold and electrophoresing. […] The fate of the NDGA is unclear. Its disappearance may involve oxidation of the catechols to quinones, since the medium developed a brown pigment similar to that formed from chemically oxidized NDGA. In the medium containing […] NDGA, less than 10% of the initial NDGA remained after 24 hours, decreasing the NDGA concentration to below […] (FIGS. 13A and 13B).
# [3] = test system: primary tendon fibroblast cultures; assay: Fibroblast replication after single NDGA exposure; assay type: cell-based, calf
# Description: as §1
# Effect of NDGA on fibroblast replication. To determine whether NDGA or oxidation products derived from the cross-linking reaction influenced cell replication, primary tendon fibroblast cultures were treated with a single exposure at the start of culture with concentrations of NDGA from […]. Fibroblasts were subsequently cultured for 1, 2, and 4 weeks. At each time point, the number of viable cells in each treatment group was determined. The lower NDGA concentrations, […], had no effect on cell replication (FIG. 15).
# [4] = medium containing, after 24 hours
structure (smiles),measurement,setting,value
"CC(Cc1ccc(O)c(O)c1)C(C)Cc1ccc(O)c(O)c1 (centres unmarked) [NDGA, Nordihydroguaiaretic acid]",Reduction in viable cells,"[1]; 1000 mM NDGA, after 24 hr",80%
same,Effect on cell viability over that of DMSO alone,"[1]; NDGA at 1, 10, and 100 mM, 24 hours of exposure",little effect
same,NDGA vanished from medium,"[2]; 10 mM in DMSO diluted 100-fold into medium, 37° C., no cells, by 24 hours",over 95%
same,Initial NDGA remaining in medium,[2]; [4],less than 10%
same,NDGA concentration in medium,[2]; [4],below 100 mM
same,Effect on cell replication,"[3]; 1 and 10 mM NDGA, culture 1, 2, 4 weeks",no effect
same,Effect on cell replication,[3]; highest NDGA concentration,toxic to the cells
same,Effect on cell replication,"[3]; one hundred millimolar NDGA, after first week rate similar to control",temporary delay in replication
